Experimental data taken from patent US20250154163A1, “Pyrimidinone-Containing 17-Beta-Hydroxysteroid Dehydrogenase Type 13 Inhibitors” (ENANTA PHARMACEUTICALS, INC., priority 2023, published 2025).
pIC50: −log10 of the molar value.

Tests used:
[1] = target: T1, human HSD17β13 (stable HEK293T cell line overexpressing human HSD17β13) (Homo sapiens, UniProt Q7Z5P4); experiment: HSD17β13 inhibitor cell-based screening assay (conversion of estradiol-d2 to estrone-d2 by RF-MS); conditions: conversion of estradiol-d2 to estrone-d2 after 24 hours
T1 construct: expressed in transfected cells
T1 sequence (Q7Z5P4 20-300): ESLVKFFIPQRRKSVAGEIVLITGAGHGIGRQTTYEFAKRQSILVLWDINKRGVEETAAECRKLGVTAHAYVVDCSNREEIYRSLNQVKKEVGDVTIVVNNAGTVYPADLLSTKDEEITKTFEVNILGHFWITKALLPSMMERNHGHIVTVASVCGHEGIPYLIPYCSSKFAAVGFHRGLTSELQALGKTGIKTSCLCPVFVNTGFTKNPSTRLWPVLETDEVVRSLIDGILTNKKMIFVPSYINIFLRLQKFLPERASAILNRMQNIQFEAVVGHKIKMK
Summary of the method: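 Cellular IC50 is based on 24-h conversion of estradiol-d2 (5 μM final) to estrone-d2, measured by RF-MS in acetonitrile-precipitated supernatants. Assay uses human HSD17β13-overexpressing HEK293T cells (7.5E3/well, 1% charcoal/dextran FBS MEM), with compounds dosed as a 9-point 1:3 series to 10 μM final. ATPlite luminescence on overexpressing and parent lines measured viability.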

[2] = target: T2, Recombinant human 17β-HSD13 (Homo sapiens, UniProt Q7Z5P4); experiment: 17β-HSD13 rapid-fire mass spectrometry assay (RF/MS assay); format: biochemical; conditions: inhibition of 17β-HSD13, RF/MS assay; HSD17B13 80 nM, LTB4 10 μM, NAD+ 0.5 mM, RT 3 h
T2 construct: host or cells: Sf9 insect cells
T2 sequence (Q7Z5P4 20-300): T1 sequence (Q7Z5P4 20-300)
Description: 17(3-HSD13 rapid-fire mass spectrometry assay (RF/MS assay). Recombinant human 17β-HSD13 was expressed and purified from sf9 cells at Charles River Labs (Saffron Walden, UK). Leukotriene B4 (Catalog #71160-24-2) and 12-oxoleukotriene B4 (Catalog #20140) were purchased from Cayman Chemicals (Ann Arbor, MI). NAD+ (Catalog #N8285), BSA (Catalog #A7030), DMSO (Catalog #D2650), and Tween-20 (Catalog #11332465001) were purchased from Sigma (St. Louis, MO). Formic acid (Catalog #28905) was from ThermoFisher Scientific and 384 deep well PP microplates (Catalog #784261) were from Greiner Bio-One. In a typical IC50 assay performed in a 384w PP microplate, test compounds (0-100 μM) were incubated with HSD17B13 (80 nM), LTB4 (10 μM), and NAD^+ (0.5 mM) in 10 μL assay buffer (20 mM Tris (pH 7.5), BSA (0.005%), and Tween-20 (0.01%)) at RT for 3 h. The assays were quenched by adding 20 μL of 0.15% aqueous formic acid and the plates were frozen at −80° C. RF/MS analysis was performed at PureHoney Technologies (Billerica, MA) on a RapidFire RF300 system (Agilent Technologies, Inc.) coupled to an API 4000 triple quadrupole mass spectrometer (Sciex) equipped with Agilent RapidFire cartridge type A (C4). The mobile phase was 0.09% formic acid and 0.01% trifluoracetic acid in water (Buffer A) and 0.09% formic acid and 0.01% trifluoracetic acid in 80% aqueous acetonitrile (Buffer B). The RapidFire method conditions were the following: 250 ms aspirate, 3000 ms load/desalt, 4000 ms elute, and 500 ms re-equilibrate. RF-MS/MS was performed in negative polarity (−4500 V), the source temperature was 650° C., and gas 1 and gas 2 settings for nitrogen were set to 50. The curtain gas and collision gas were also nitrogen and were set to 20 and 12, respectively. Leukotriene B4 (335.3) and 12-oxoLeukotriene B4 (333.3) SRM transitions were optimized with Discovery Quant software and extracted ion counts for these analytes were determined.
Data Analysis. 17β-HSD13 enzyme activity was measured as percent conversion of extracted ion counts and normalized to high and low controls to determine percent residual activity at various concentrations of test compounds. Data was fitted to normalized activity (variable slope) versus concentration fit in GraphPad Prism 7 to determine IC50. All experiments were run in duplicates.
By using the above method, the inhibition of 17β-HSD13 was evaluated for the compounds of Formula (I). IC50 ranges are as follows: A is <0.1 μM; B is 0.1 μM-1.0 μM; C is 1.0 μM-10 μm; and D is >10 μM.

Row | SMILES | pIC50 [1] | pIC50 [2]
1 | CCOc1ccc(-c2nc3sc4c(O)c(Cl)ccc4c3c(=O)n2Cc2cnco2)c(C2CC2)c1 [Example 72, 7-chloro-2-(2-cyclopropyl-4-ethoxyphenyl)-8-hydroxy-3-(oxazol-5-ylmethyl)benzo[4,5]thieno[2,3-d]pyrimidin-4(3H)-one] | > 7.00 | > 7.00
2 | CC(C)Oc1ccc(-c2nc3sc4c(O)c(Cl)ccc4c3c(=O)n2Cc2cnco2)c(C2CC2)c1 [Example 73] | > 7.00 | > 7.00
3 | CC(C)(C)c1ccc(-c2nc3sc4c(O)c(Cl)ccc4c3c(=O)n2Cc2cnco2)c(C2CC2)c1 [Example 75, 2-(4-(tert-butyl)-2-cyclopropylphenyl)-7-chloro-8-hydroxy-3-(oxazol-5-ylmethyl)benzo[4,5]thieno[2,3-d]pyrimidin-4(3H)-one] | > 7.00 | > 7.00
4 | COc1cc(C2CC2)c(-c2nc3sc4c(O)c(Cl)ccc4c3c(=O)n2Cc2cnco2)cc1F [Example 76, 7-chloro-2-(2-cyclopropyl-5-fluoro-4-methoxyphenyl)-8-hydroxy-3-(oxazol-5-ylmethyl)benzo[4,5]thieno[2,3-d]pyrimidin-4(3H)-one] | > 7.00 | > 7.00
5 | O=c1c2c(nc(-c3cc(Cl)c(Cl)cc3C3CC3)n1Cc1cnco1)sc1c(O)c(Cl)ccc12 [Example 77] | > 7.00 | > 7.00
6 | COc1cc(C2CC2)c(-c2nc3sc4c(O)c(Cl)ccc4c3c(=O)n2Cc2cnco2)cc1C(F)(F)F [Example 78] | > 7.00 | 6.00 to 7.00
7 | O=c1c2c(nc(-c3cc(C(F)(F)F)c(Cl)cc3C3CC3)n1Cc1cnco1)sc1c(O)c(Cl)ccc12 [Example 79] | > 7.00 | > 7.00
8 | COc1cc(-c2nc3sc4c(O)c(Cl)ccc4c3c(=O)n2Cc2cnco2)c(C2CC2)cc1F [Example 82, 7-chloro-2-(2-cyclopropyl-4-fluoro-5-methoxyphenyl)-8-hydroxy-3-(oxazol-5-ylmethyl)benzo[4,5]thieno[2,3-d]pyrimidin-4(3H)-one] | > 7.00 | > 7.00
9 | COc1ccc(C2CC2)c(-c2nc3sc4c(O)c(Cl)ccc4c3c(=O)n2Cc2cnco2)c1 [Example 83] | > 7.00 | > 7.00
10 | O=c1c2c(nc(-c3cc(F)c(F)cc3C3CC3)n1Cc1cc(C(F)(F)F)no1)sc1c(O)c(Cl)ccc12 [Example 85] | > 7.00 | > 7.00
11 | COc1ccc(-c2nc3sc4c(O)c(Cl)ccc4c3c(=O)n2Cc2cnn(C)c2)c(C2CC2)c1 [Example 86] | > 7.00 | > 7.00
12 | O=c1c2c(nc(-c3ncc(C(F)(F)F)cc3C3CC3)n1Cc1cc(C(F)(F)F)no1)sc1c(O)c(Cl)ccc12 [Example 96] | > 7.00 | > 7.00
13 | O=c1c2c(nc(-c3ncc(F)cc3C3CC3)n1Cc1cc(C(F)(F)F)no1)sc1c(O)c(Cl)ccc12 [Example 97] | > 7.00 | > 7.00
14 | O=c1c2c(nc(-c3ncc(C(F)(F)F)cc3C3CC3)n1Cc1cnc(C(F)(F)F)nc1)sc1c(O)c(Cl)ccc12 [Example 99] | > 7.00 | > 7.00
15 | COc1cc(C2CC2)c(-c2nc3sc4c(O)c(Cl)ccc4c3c(=O)n2Cc2cnco2)cc1Cl [Example 105, 7-chloro-2-(5-chloro-2-cyclopropyl-4-methoxyphenyl)-8-hydroxy-3-(oxazol-5-ylmethyl)benzo[4,5]thieno[2,3-d]pyrimidin-4(3H)-one] | > 7.00 | > 7.00
16 | O=c1c2c(nc(-c3ccc(Cl)cc3C3CC3)n1Cc1cnco1)sc1c(O)c(Cl)ccc12 [Example 106] | > 7.00 | > 7.00
17 | COc1ccc(-c2nc3sc4c(O)c(Cl)ccc4c3c(=O)n2Cc2cnco2)c(C2CCC2)c1 [Example 117] | 6.30 to 7.00 | > 7.00
18 | O=c1c2c(nc(-c3cc(F)c(F)cc3C3CC3)n1Cc1cnco1)sc1c(O)c(Cl)ccc12 [Example 119] | > 7.00 | > 7.00
19 | COc1cc(-c2nc3sc4c(O)c(Cl)ccc4c3c(=O)n2Cc2cnco2)c(C2CC2)cc1Cl [Example 120] | > 7.00 | > 7.00
20 | COc1ccc(-c2nc3sc4c(O)c(Cl)ccc4c3c(=O)n2Cc2cnco2)c(Br)c1 [Example 122] | > 7.00 | > 7.00
21 | O=c1c2c(nc(-c3cc(F)c(Cl)cc3C3CC3)n1Cc1cnco1)sc1c(O)c(Cl)ccc12 [Example 123] | > 7.00 | > 7.00
22 | COc1ccc(-c2nc3sc4c(O)c(Cl)ccc4c3c(=O)n2Cc2cnco2)c(C(C)C)c1 [Example 125] | > 7.00 | > 7.00

The remaining lines, values ahead:

Row | pIC50 [1] | pIC50 [2] | SMILES
23 | > 7.00 | > 7.00 | COc1ccc(-c2nc3sc4c(O)c(Cl)ccc4c3c(=O)n2Cc2cn(C(F)(F)F)nn2)c(C2CC2)c1 [Example 130]
24 | > 7.00 | > 7.00 | O=c1c2c(nc(-c3ccc(OC(F)(F)F)cc3C3CC3)n1Cc1cnco1)sc1c(O)c(Cl)ccc12 [Example 131]
25 | > 7.00 | > 7.00 | O=c1c2c(nc(-c3ccc(F)c(F)c3C3CC3)n1Cc1cnco1)sc1c(O)c(Cl)ccc12 [Example 132]
26 | > 7.00 | > 7.00 | O=c1c2c(nc(-c3cc(F)c(C(F)(F)F)cc3C3CC3)n1Cc1cnco1)sc1c(O)c(Cl)ccc12 [Example 133]
27 | > 7.00 | > 7.00 | O=c1c2c(nc(-c3ccc(C(F)(F)F)cc3C3CC3)n1Cc1cnco1)sc1c(O)c(Cl)ccc12 [Example 135]
28 | > 7.00 | > 7.00 | COc1cc(F)c(-c2nc3sc4c(O)c(Cl)ccc4c3c(=O)n2Cc2cnco2)c(C2CC2)c1 [Example 137]
29 | > 7.00 | > 7.00 | O=c1c2c(nc(-c3cc(Cl)c(F)cc3C3CC3)n1Cc1cnco1)sc1c(O)c(Cl)ccc12 [Example 138]
30 | > 7.00 | > 7.00 | O=c1c2c(nc(-c3cc(OC(F)(F)F)ccc3C3CC3)n1Cc1cnco1)sc1c(O)c(Cl)ccc12 [Example 143]
31 | > 7.00 | > 7.00 | O=c1c2c(nc(-c3c(F)cc(F)cc3C3CC3)n1Cc1cnco1)sc1c(O)c(Cl)ccc12 [Example 144]
32 | > 7.00 | > 7.00 | O=c1c2c(nc(-c3c(C4CC4)cc(F)c(F)c3F)n1Cc1cnco1)sc1c(O)c(Cl)ccc12 [Example 147]
33 | > 7.00 | > 7.00 | O=c1ccc(Cn2c(-c3cc(F)c(F)cc3C3CC3)nc3sc4c(O)c(Cl)ccc4c3c2=O)c[nH]1 [Example 169]
34 | > 7.00 | > 7.00 | O=c1c2c(nc(-c3ccc(C(F)F)cc3C3CC3)n1Cc1cc(C(F)(F)F)no1)sc1c(O)c(Cl)ccc12 [Example 171]
35 | > 7.00 | > 7.00 | Cn1cc(Cn2c(-c3cc(F)c(F)cc3C3CC3)nc3sc4c(O)c(Cl)ccc4c3c2=O)ccc1=O [Example 174]
36 | > 7.00 | > 7.00 | O=c1c2c(nc(-c3cc(F)c(C(F)F)cc3C3CC3)n1Cc1cc(C(F)(F)F)no1)sc1c(O)c(Cl)ccc12 [Example 175]
37 | > 7.00 | > 7.00 | O=c1c2c(nc(-c3cc(F)c(C(F)F)cc3C3CC3)n1Cc1cnc(C(F)(F)F)nc1)sc1c(O)c(Cl)ccc12 [Example 176]
38 | > 7.00 | > 7.00 | COc1ccc(-c2nc3sc4c(O)c(Cl)ccc4c3c(=O)n2Cc2cncs2)c(C2CC2)c1 [Example 190]
39 | > 7.00 | > 7.00 | COc1ccc(-c2nc3sc4c(O)c(Cl)ccc4c3c(=O)n2Cc2cnc(Cl)s2)c(C2CC2)c1 [Example 191]
